Results: the supplement of paper PMC10307832

Key:
Test in all cases: relative viability (nuclei count vs DMSO), 5 days (fraction); higher = more cells survive
Ruxolitinib + Decitabine = compound: N#CC[C@H](C1CCCC1)n1cc(-c2ncnc3[nH]ccc23)cn1 [Ruxolitinib] + Nc1ncn([C@H]2C[C@H](O)[C@@H](CO)O2)c(=O)n1 [Decitabine] (partner 2 µM)
In short: (§1)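 After 5 days of treatment, lung cancer cells in 1536-well plates were fixed and stained in a single step (final 0.05% Triton X-100, 1% formaldehyde, 1 ug/ml Hoechst) and their nuclei counted on 4× images. Treatment had been applied by pin tool the day after seeding as one drug alone or as a fixed anchor-drug dose with five library-drug doses (not always all listed) in √10 steps. Relative viability is the nuclei count of treated wells divided by that of vehicle wells, and values are medians of duplicate plates.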

Vismodegib + Pemetrexed = compound: CS(=O)(=O)c1ccc(C(=O)Nc2ccc(Cl)c(-c3ccccn3)c2)c(Cl)c1 [Vismodegib] + Nc1nc2[nH]cc(CCc3ccc(C(=O)N[C@@H](CCC(=O)O)C(=O)O)cc3)c2c(=O)[nH]1 [Pemetrexed] (partner 0.2 µM)
In short: as §1

VE-821 + Foretinib = compound: CS(=O)(=O)c1ccc(-c2cnc(N)c(C(=O)Nc3ccccc3)n2)cc1 [VE-821] + COc1cc2c(Oc3ccc(NC(=O)C4(C(=O)Nc5ccc(F)cc5)CC4)cc3F)ccnc2cc1OCCCN1CCOCC1 [Foretinib] (partner 0.25 µM)
In short: as §1

Ruxolitinib + Tozasertib = compound: N#CC[C@H](C1CCCC1)n1cc(-c2ncnc3[nH]ccc23)cn1 [Ruxolitinib] + Cc1cc(Nc2cc(N3CCN(C)CC3)nc(Sc3ccc(NC(=O)C4CC4)cc3)n2)n[nH]1 [Tozasertib] (partner 0.1 µM)
In short: as §1

| Cell Line | relative viability (Ruxolitinib + Decitabine; first compound 0.08 µM) | relative viability (Ruxolitinib + Decitabine; first compound 0.253 µM) | relative viability (Ruxolitinib + Decitabine; first compound 0.8 µM) | relative viability (Ruxolitinib + Decitabine; first compound 2.53 µM) | relative viability (Ruxolitinib + Decitabine; first compound 8 µM) | relative viability (Vismodegib + Pemetrexed; first compound 0.08 µM) | relative viability (Vismodegib + Pemetrexed; first compound 0.253 µM) | relative viability (Vismodegib + Pemetrexed; first compound 0.8 µM) | relative viability (Vismodegib + Pemetrexed; first compound 2.53 µM) | relative viability (Vismodegib + Pemetrexed; first compound 8 µM) | relative viability (VE-821 + Foretinib; first compound 0.08 µM) | relative viability (VE-821 + Foretinib; first compound 0.253 µM) | relative viability (VE-821 + Foretinib; first compound 0.8 µM) | relative viability (VE-821 + Foretinib; first compound 2.53 µM) | relative viability (VE-821 + Foretinib; first compound 8 µM) | relative viability (Ruxolitinib + Tozasertib; first compound 0.08 µM) | relative viability (Ruxolitinib + Tozasertib; first compound 0.253 µM) | relative viability (Ruxolitinib + Tozasertib; first compound 0.8 µM) | relative viability (Ruxolitinib + Tozasertib; first compound 2.53 µM) | relative viability (Ruxolitinib + Tozasertib; first compound 8 µM) |
| --- | --- | --- | --- | --- | --- | --- | --- | --- | --- | --- | --- | --- | --- | --- | --- | --- | --- | --- | --- | --- |
| NCI-H661 | 0.547 | 0.548 | 0.588 | 0.484 | 0.505 | 0.915 | 0.854 | 0.887 | 0.876 | 0.941 | 0.991 | 1.04 | 0.95 | 1.08 | 0.935 | 0.358 | 0.354 | 0.365 | 0.363 | 0.352 |
| NCI-H1395 | 0.698 | 0.697 | 0.77 | 0.69 | 0.686 | 0.918 | 0.817 | 0.775 | 0.93 | 0.743 | 1.05 | 1.01 | 0.826 | 0.98 | 0.828 | 0.768 | 0.718 | 0.86 | 0.753 | 0.78 |
| LCLC-97TM1 | 0.221 | 0.242 | 0.22 | 0.265 | 0.222 | 0.205 | 0.171 | 0.149 | 0.176 | 0.178 | 1.12 | 1.05 | 0.878 | 0.98 | 0.885 | 0.178 | 0.316 | 0.229 | 0.305 | 0.348 |
| HCC-827 | – | 0.325 | 0.364 | 0.253 | 0.305 | 0.246 | 0.283 | 0.563 | 0.284 | 0.267 | 1.13 | 0.956 | 1.02 | 1.05 | 0.827 | – | 0.342 | 0.35 | 0.397 | 0.386 |
